Our source for the Ki values is BindingDB's records for doi:10.1124/jpet.301.1.322 (Sanofi Synthelabo, 2002).

The structures appear in SMILES notation. Residue numbers refer to the chain shown, from its start. Several values for one entry are separate records, joined by “and”; a condition that tells them apart may be missing. Identical values can stand only once.

For experiment [1], the target named is T1, Corticotropin-releasing factor receptor 1 (Homo sapiens, UniProt P34998).
T1 sequence (P34998 whole entry): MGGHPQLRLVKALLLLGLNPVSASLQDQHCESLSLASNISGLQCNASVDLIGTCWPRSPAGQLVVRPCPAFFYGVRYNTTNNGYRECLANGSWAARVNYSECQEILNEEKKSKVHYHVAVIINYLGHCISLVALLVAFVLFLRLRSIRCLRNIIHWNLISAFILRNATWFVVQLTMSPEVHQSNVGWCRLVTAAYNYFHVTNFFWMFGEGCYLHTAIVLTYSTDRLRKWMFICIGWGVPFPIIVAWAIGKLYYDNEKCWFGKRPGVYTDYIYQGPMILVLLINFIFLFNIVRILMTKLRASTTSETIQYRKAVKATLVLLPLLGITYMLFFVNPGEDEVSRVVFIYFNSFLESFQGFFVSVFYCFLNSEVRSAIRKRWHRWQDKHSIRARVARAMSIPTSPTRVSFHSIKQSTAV

Experiment [2] deals with T2, Corticotropin-releasing factor receptor 1 (Mus musculus, UniProt P35347).
T2 sequence (P35347 whole entry): T1 sequence (P34998 whole entry) with G3Q, H4R, A23T, H29Q, I39V, V118I, M176V, G186A, I232V, H379R

The target in experiment [3] is T3, Corticotropin-releasing factor receptor 1 (Rattus norvegicus, UniProt P35353).
T3 sequence (P35353 whole entry): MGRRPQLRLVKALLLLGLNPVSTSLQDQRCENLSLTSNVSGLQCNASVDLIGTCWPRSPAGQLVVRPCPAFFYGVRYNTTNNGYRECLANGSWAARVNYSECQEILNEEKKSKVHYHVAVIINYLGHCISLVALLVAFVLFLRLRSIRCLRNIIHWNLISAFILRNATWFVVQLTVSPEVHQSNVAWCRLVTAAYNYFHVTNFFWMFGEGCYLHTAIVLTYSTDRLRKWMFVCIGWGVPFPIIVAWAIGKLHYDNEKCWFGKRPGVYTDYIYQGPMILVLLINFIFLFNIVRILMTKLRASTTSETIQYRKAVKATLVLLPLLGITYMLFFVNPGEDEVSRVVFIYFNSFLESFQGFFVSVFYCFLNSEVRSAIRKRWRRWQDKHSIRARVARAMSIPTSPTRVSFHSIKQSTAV

A word on the Ki: it is a measure of affinity in units of concentration, obtained from inhibition or displacement. Lower therefore signals tighter binding. In the case of `Cc1ccccc1C(=O)Nc1ccc(C(=O)N2CCCC(O)c3cc(Cl)ccc32)c(C)c1` (stereo not drawn), the Ki in experiment [1] was 0.83 nM; in experiment [2] it was 1.26 nM; in experiment [3], 1.7 nM and 1 nM.
